Assay results as given in PubChem BioAssay AID2060501 (Molecular Pharmacology Branch, DTP, NCI, 2025).

Tested on: 282377-053-R-J1-PDC complex spheroids, viability
Experiment: Anticancer human tumor 282377-053-R-J1-PDC patient-derived colon adenocarcinoma cell line growth inhibition [GQUAD]
Details: for IC50: curve of first compound; for viability, T/C: stronger effect = lower value
Source text: DNA G-quadruplex Stabilizer Agents in Combinations in Complex Spheroids
A high-throughput screen of multi-cell type tumor spheroids was designed to identify active combinations of DNA G-quadruplex stabilizer agents and targeted small molecules. Complex spheroids include a stromal component modeled by human endothelial cells (HUVEC) and fibroblasts modeled by human mesenchymal stem cells (MSCs). The concentration ranges selected for each drug and investigational agent were based upon clinically achievable concentrations if the clinical Cmax of the agent was known.
Compounds. The drugs and investigational agents: pidnarulex (CX-5461; NSC782164), APTO-253 (NSC789042), BRACO-19 (NSC847499), peposertib (NSC802822), ceralasertib (NSC780249), elimusertib (NSC800525), camonsertib (NSC841442), AZD-1390 (NSC803789), olaparib (NSC753686), talazoparib (NSC767125), ART-558 (NSC835418), sotorasib (NSC818433), MRTX-1133 (NSC836407), SN-38 (NSC673596), topotecan (NSC609699), etoposide (NSC141540), doxorubicin (NSC123127), gemcitabine (NSC613327), 5-fluorouracil (NSC19893), paclitaxel (NSC125973), vemurafenib (NSC761431), panobinostat (NSC761190), R-306465 (JNJ-16241199; NSC773264), adavosertib (NSC754352), TP-3654 (NSC805149), carboplatin (NSC241240), KSQ-4279 (NSC840948), and staurosporine (NSC755774) were obtained from the National Cancer Institute (NCI) Developmental Therapeutics Program Chemical Repository (34). The FDA-approved anticancer drug set is available from the NCI Developmental Therapeutics Program. […] The stock solutions were prepared in dimethyl sulfoxide (DMSO, Sigma-Aldrich, St. Louis, MO, cat. D2650) at 800-fold the tested concentration and stored at -70 degrees C prior to their use. All drugs and investigational agents were tested over a range starting from a high concentration at or near the clinical Cmax and decreasing in half-log increments. If the clinical Cmax for an agent had not been determined, the highest concentration tested was 10 microM.
2.3 Cell Culture. All cells were maintained in an incubator at 37 degrees C and 5% CO2 with 95% humidity. The PDC lines were cultured according to standard operating procedures established by the NCI PDMR. All PDCs were thawed and cultured in Matrigel-coated flasks prepared with a working solution of 1X Ham's F-12 nutrient mix, without supplementation (Invitrogen, cat. 11765054), 100 U/mL penicillin-streptomycin (Invitrogen, cat. 15140122), and 2.5% Matrigel (Corning Inc., cat. 354248) for the first three passages. The 857933-349-R-J2-PDC line was cultured in 6C/Colon 1B media, which includes advanced DMEM/F-12 (Thermo Fisher Scientific, cat. 12634028), 10 mM HEPES (Thermo Fisher Scientific, cat. 15630080), 1X GlutaMAX supplement (Thermo Fisher Scientific, cat. 35050061), 0.1 mg/mL primocin (InvivoGen, cat. ant-pm-2), 10% defined fetal bovine serum, heat inactivated (HyClone Laboratories Inc., cat. SH30070.03HI), 50% L-WRN conditioned media (ATCC, cat. CRL-3276), 1.25 mM N-Acetyl-L-cysteine (Sigma-Aldrich, cat. A9165), 10 mM nicotinamide (Sigma-Aldrich, cat. N0636), 1X B-27 supplement (Thermo Fisher Scientific, cat. 17504044), 1X N-2 supplement (Thermo Fisher Scientific, cat. 17502048), 10 microM Y-27632 dihydrochloride (Tocris Bioscience, cat. 1254), and 50 ng/mL human EGF recombinant protein (Thermo Fisher Scientific, cat. PHG0311). The 485176-168-R4-J1-PDC line was cultured in Panc media, which includes all 6C/Colon 1B media components plus 100 ng/mL human FGF-10 (Thermo Fisher Scientific, cat. 100-26), 500 nM SB-431542 (Selleckchem, cat. S1067), and gastrin (Tocris, cat. 3006).
[…]
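Also: spheroids exposed to compounds for 7 days before readout.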
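For viability, T/C in this document: percent of vehicle DMSO control viability with 100% = untreated-like growth.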

SMILES: COc1ncnc(C2CC2)c1-c1ncc2cnn(Cc3ccc(-c4nc(C(F)(F)F)cn4C(C)C)cc3)c2n1 + Cc1[nH]c2ccc(F)cc2c1-c1nc2c3cccnc3c3ncccc3c2[nH]1
- IC50 (second compound 0.0316 µM): 5.7 µM
- IC50 (second compound 0.1 µM): 5.93 µM
- IC50 (second compound 0.316 µM): 5.9 µM
- IC50 (second compound 1 µM): 5.46 µM
- IC50 (second compound 3.16 µM): 4.13 µM
- IC50 (second compound 10 µM): 3.36 µM
- viability, T/C (second compound 0.0316 µM, first compound 0.0316 µM): 97.6%
- viability, T/C (second compound 0.0316 µM, first compound 0.1 µM): 103%
- viability, T/C (second compound 0.0316 µM, first compound 0.316 µM): 91.9%
- viability, T/C (second compound 0.0316 µM, first compound 1 µM): 99.4%
- viability, T/C (second compound 0.0316 µM, first compound 3.16 µM): 97.1%
- viability, T/C (second compound 0.0316 µM, first compound 10 µM): 5.07%
- viability, T/C (second compound 0.1 µM, first compound 0.0316 µM): 88.5%
- viability, T/C (second compound 0.1 µM, first compound 0.1 µM): 107%
- viability, T/C (second compound 0.1 µM, first compound 0.316 µM): 114%
- viability, T/C (second compound 0.1 µM, first compound 1 µM): 110%
- viability, T/C (second compound 0.1 µM, first compound 3.16 µM): 101%
- viability, T/C (second compound 0.1 µM, first compound 10 µM): 7.94%
- viability, T/C (second compound 0.316 µM, first compound 0.0316 µM): 103%
- viability, T/C (second compound 0.316 µM, first compound 0.1 µM): 88.3%
- viability, T/C (second compound 0.316 µM, first compound 0.316 µM): 111%
- viability, T/C (second compound 0.316 µM, first compound 1 µM): 117%
- viability, T/C (second compound 0.316 µM, first compound 3.16 µM): 96.3%
- viability, T/C (second compound 0.316 µM, first compound 10 µM): 10.5%
- viability, T/C (second compound 1 µM, first compound 0.0316 µM): 97.1%
- viability, T/C (second compound 1 µM, first compound 0.1 µM): 97.2%
- viability, T/C (second compound 1 µM, first compound 0.316 µM): 113%
- viability, T/C (second compound 1 µM, first compound 1 µM): 115%
- viability, T/C (second compound 1 µM, first compound 3.16 µM): 89.5%
- viability, T/C (second compound 1 µM, first compound 10 µM): 6.2%
- viability, T/C (second compound 3.16 µM, first compound 0.0316 µM): 85.5%
- viability, T/C (second compound 3.16 µM, first compound 0.1 µM): 79.5%
- viability, T/C (second compound 3.16 µM, first compound 0.316 µM): 93.2%
- viability, T/C (second compound 3.16 µM, first compound 1 µM): 82.6%
- viability, T/C (second compound 3.16 µM, first compound 3.16 µM): 63.2%
- viability, T/C (second compound 3.16 µM, first compound 10 µM): 6.71%
- viability, T/C (second compound 10 µM, first compound 0.0316 µM): 48.1%
- viability, T/C (second compound 10 µM, first compound 0.1 µM): 30.1%
- viability, T/C (second compound 10 µM, first compound 0.316 µM): 76.9%
- viability, T/C (second compound 10 µM, first compound 1 µM): 54.2%
- viability, T/C (second compound 10 µM, first compound 3.16 µM): 53.4%
- viability, T/C (second compound 10 µM, first compound 10 µM): 5.55%
